Data from publication PMC4374931 (PLoS ONE, 2015).
Read-outs that look alike come from different tables or passages of the source.

What was measured:
androgen receptor [1] = details: cited from earlier work
human androgen receptor [2] = target: T1, human androgen receptor (Homo sapiens, UniProt P10275); experiment: Gene reporter assay in AIZ-AR cells, agonist mode (luciferase); assay type: cell-based
Method: (§1) AIZ-AR cells were seeded in 96-well plates at density 5x10^4 cells per well. […] After the treatments, cells were lysed and luciferase activity was measured in 96-well plate format using Tecan Infinite M2000 plate luminometer.
(§2) Dose-response analyses assays were performed in two different experimental layouts. […] Where appropriate, IC50 (half maximal inhibitory concentration) values were calculated.

human androgen receptor [3] = target: T1, human androgen receptor; experiment: Gene reporter assay in AIZ-AR cells, antagonist mode with DHT (100 nM); assay type: cell-based
Method: as §1, §2

in vitro = assay type: cell-based; details: human
Method: AIZ-AR cells were seeded in 96-well plates at density 5x10^4 cells per well. […] Following the incubation, MTT assay was measured spectrophotometrically at 540 nm using Tecan Infinite M2000 plate luminometer.

firefly luciferase = experiment: Inhibition of firefly luciferase in cell lysates; assay type: biochemical; details: compounds 10 μM added to lysates of cells treated with 100 nM DHT; data not shown
Method: AIZ-AR cells were treated with 100 nM DHT for 24 hours. Cell lysates containing firefly luciferase, having a catalytic activity corresponding to model ligand-treated cells, were isolated. Tested compounds (10 μM) were added to cell lysates and luciferase activity was measured.

androgen receptor [4] = target: androgen receptor; parameters: method as in Sedlak et al.; details: published data; ref Sedlak et al.; cited from earlier work
androgen receptor [5] = target: androgen receptor; parameters: method as in Wilkinson et al.; details: published data; ref Wilkinson et al.; cited from earlier work

T1 sequence (P10275 whole entry): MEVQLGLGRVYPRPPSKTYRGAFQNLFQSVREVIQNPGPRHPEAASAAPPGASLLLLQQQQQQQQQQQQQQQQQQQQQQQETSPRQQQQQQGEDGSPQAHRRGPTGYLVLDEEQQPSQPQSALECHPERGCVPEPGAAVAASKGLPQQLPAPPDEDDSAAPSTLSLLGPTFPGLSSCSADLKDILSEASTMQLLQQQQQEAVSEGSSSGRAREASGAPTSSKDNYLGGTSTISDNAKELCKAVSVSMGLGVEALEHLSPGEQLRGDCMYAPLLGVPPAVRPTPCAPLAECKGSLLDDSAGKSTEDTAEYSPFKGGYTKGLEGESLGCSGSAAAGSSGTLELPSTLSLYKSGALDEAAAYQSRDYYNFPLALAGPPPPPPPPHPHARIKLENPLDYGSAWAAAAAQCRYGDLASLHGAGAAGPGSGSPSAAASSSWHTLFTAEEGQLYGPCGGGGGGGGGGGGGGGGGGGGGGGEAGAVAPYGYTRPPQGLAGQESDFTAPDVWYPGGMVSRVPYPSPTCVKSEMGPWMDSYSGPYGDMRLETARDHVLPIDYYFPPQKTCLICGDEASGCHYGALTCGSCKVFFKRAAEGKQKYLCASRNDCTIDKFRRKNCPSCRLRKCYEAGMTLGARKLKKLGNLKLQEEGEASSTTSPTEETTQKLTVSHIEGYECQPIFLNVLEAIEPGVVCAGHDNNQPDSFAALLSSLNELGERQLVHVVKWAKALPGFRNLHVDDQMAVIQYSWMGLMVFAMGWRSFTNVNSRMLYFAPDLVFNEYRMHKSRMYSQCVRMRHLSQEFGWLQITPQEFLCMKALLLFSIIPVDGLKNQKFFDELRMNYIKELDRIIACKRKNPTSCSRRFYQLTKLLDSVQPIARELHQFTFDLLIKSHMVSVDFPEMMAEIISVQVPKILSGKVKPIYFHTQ

C[C@]1(O)CC[C@H]2[C@@H]3CCC4=CC(=O)CCC4=C3C=C[C@@]21C [R1881]
Response of AR-LUX cell line (induction) (androgen receptor [1]): maximally five-fold induction

O=c1c(-c2ccc(O)cc2)coc2cc(O)cc(O)c12 [Genistein, genistein]
Log EC50 (human androgen receptor [2]; Clone 8, 24 h): -6.62 ± 0.42 | Log EC50 (human androgen receptor [2]; Clone 14, 24 h): -6.79 ± 0.23 | agonist-induced luciferase activity (human androgen receptor [3]; antagonist mode, 10^-5 M, probably due to luciferase inhibition): massive drop | effect on agonist-induced luciferase activity in antagonist mode (human androgen receptor [3]; with DHT (100 nM) or testosterone (10 nM) as agonist, 24 h): strongly augmented agonist-induced luciferase activity | viability at 24 h, 0.1 nM (in vitro): 100% | viability at 24 h, 1 nM (in vitro): 96.5 ± 2.4% | viability at 24 h, 10 nM (in vitro): 96.7 ± 3.3% | viability at 24 h, 100 nM (in vitro): 103 ± 7.5% | viability at 24 h, 1 μM (in vitro): 103 ± 7.5% | viability at 24 h, 10 μM (in vitro): 120 ± 6.4% | influence on firefly luciferase catalytic activity (firefly luciferase): significantly influenced luciferase activity | Literature Log EC50 (androgen receptor [4]): > -5.00 | Literature Log EC50 (androgen receptor [5]): > -5.00
